Holding throughout (assay): Antibacterial activity, ATP assay (BacTiter-Glo)
Type in all cases: cell-based

The subject of assay [1] is Enterobacteria (1): Enterobacter cloacae JCM 1232. The following applies: ATP assay concentration: peptides 10, TOB 4.0, CPFX 1.0, OX 4.0, MEPM 8.0 μg/ml. As to the method: That is, using BacTiter-Glo Microbial Cell Viability Assay kit available from PROMEGA, the antibacterial activity of the peptides was evaluated from the viability of bacteria. […] With respect to the strains, Staphylococcus aureus ATCC29213 (S. aureus ATCC29213) as Gram-positive bacteria, or, alternatively, Pseudomonas aeruginosa (P. aeruginosa ATCC27853) as Gram-negative bacteria, was used. The bacteria were cultured in media for 3 to 4 hours, and thereafter absorbances at A600 were measured. Bacterial suspensions were diluted with Mueller-Hinton broth (MHB) according to McFarland #0.5. Each strain was added so as to attain about 0.5−1×10^5 CFU/mL (final concentration) in terms of Escherichia coli. […] A solution to which the peptides were not added was considered as a negative control, and a solution to which tobramycin (TOB) was added was considered as a positive control. […] Relative values were calculated by comparison with the negative control, and these values were regarded as the viability. […] ATP (%) of the antibacterial activity was measured in the same manner as mentioned above, and the “minimum inhibitory concentration (MIC)” was measured as follows. MIC is the lowest concentration of an agent that may inhibit the growth of a bacterium. MIC is used as a parameter for the efficacy of an antibacterial agent, for the strength of bacterial sensitivity, or the like. The bacteria can grow (proliferate) when the concentration is not higher than MIC, and cannot grow when the concentration is higher than MIC. […] (CLSI), but, in this Example, its measurement was carried out by a broth microdilution method in accordance with “M100-S17/M7-A7” (Performance Standards for Antimicrobial Susceptibility Testing; Seventeenth Informational Supplement, Vol. 27 No. 1) published by CLSI on January, 2007. That is, sensitivity test of agents was carried out using a microtiter plate or test tubes. With respect to each strain, Escherichia coli: ATCC 25922 (Escherichia coli ATCC 25922), Pseudomonas aeruginosa: ATCC 27853 (Pseudomonas aeruginosa ATCC 27853), Staphylococcus aureus: ATCC29213 (Staphylococcus aureus ATCC29213), Klebsiella pneumoniae: JCM 1662 (Klebsiella pneumoniae JCM 1662), enterobacteria (1): JCM 1232 (Enterobacter cloacae JCM 1232), enterobacteria (2): JCM 1235 (Enterobacter aerogenes JCM 1235), and Staphylococcus epidermidis: JCM 2414 (Staphylococcus epidermidis JCM 2414), were used. […] As the concentrations of the agents in ATP assay, the concentrations as described in the Tables were used.

In assay [2] the test system is Staphylococcus aureus ATCC29213. Particulars: for antibacterial activity against Staphylococcus aureus compared with AG30-5C: 10 μg/mL, ATP assay; for ATP (%) mean, Staphylococcus aureus: Table 4-1, ATP assay concentration: peptides 10, TOB 1.0, OX 0.5 μg/ml. As to the method: (§1) The antibacterial activity of the polypeptides was measured using an ATP assay method. That is, using BacTiter-Glo Microbial Cell Viability Assay kit available from PROMEGA, the antibacterial activity of the peptides was evaluated from the viability of bacteria. […] With respect to the strains, Staphylococcus aureus ATCC29213 (S. aureus ATCC29213) as Gram-positive bacteria, or, alternatively, Pseudomonas aeruginosa (P. aeruginosa ATCC27853) as Gram-negative bacteria, was used. The bacteria were cultured in media for 3 to 4 hours, and thereafter absorbances at A600 were measured. Bacterial suspensions were diluted with Mueller-Hinton broth (MHB) according to McFarland #0.5. Each strain was added so as to attain about 0.5−1×10^5 CFU/mL (final concentration) in terms of Escherichia coli. […] A solution to which the peptides were not added was considered as a negative control, and a solution to which tobramycin (TOB) was added was considered as a positive control. […] Relative values were calculated by comparison with the negative control, and these values were regarded as the viability. ATP (%) of the antibacterial activity was measured in the same manner as mentioned above, and the “minimum inhibitory concentration (MIC)” was measured as follows. MIC is the lowest concentration of an agent that may inhibit the growth of a bacterium. MIC is used as a parameter for the efficacy of an antibacterial agent, for the strength of bacterial sensitivity, or the like. The bacteria can grow (proliferate) when the concentration is not higher than MIC, and cannot grow when the concentration is higher than MIC. Its measurement is carried out according to a method defined as a standard method by Japanese Society of Chemotherapy or CLINICAL AND LABORATORY […] (CLSI), but, in this Example, its measurement was carried out by a broth microdilution method in accordance with “M100-S17/M7-A7” (Performance Standards for Antimicrobial Susceptibility Testing; Seventeenth Informational Supplement, Vol. 27 No. 1) published by CLSI on January, 2007. That is, sensitivity test of agents was carried out using a microtiter plate or test tubes. With respect to each strain, Escherichia coli: ATCC 25922 (Escherichia coli ATCC 25922), Pseudomonas aeruginosa: ATCC 27853 (Pseudomonas aeruginosa ATCC 27853), Staphylococcus aureus: ATCC29213 (Staphylococcus aureus ATCC29213), Klebsiella pneumoniae: JCM 1662 (Klebsiella pneumoniae JCM 1662), enterobacteria (1): JCM 1232 (Enterobacter cloacae JCM 1232), enterobacteria (2): JCM 1235 (Enterobacter aerogenes JCM 1235), and Staphylococcus epidermidis: JCM 2414 (Staphylococcus epidermidis JCM 2414), were used. […] As the concentrations of the agents in ATP assay, the concentrations as described in the Tables were used.

Assay [3] relates to Pseudomonas aeruginosa ATCC27853. The following applies: for ATP (%) mean, Pseudomonas aeruginosa: Table 4-1, ATP assay concentration: peptides 10, TOB 1.0, CPFX 1.0, OX 0.5, MEPM 1.0 μg/ml; for antibacterial activity against Pseudomonas aeruginosa compared with AG30-5C: 10 μg/mL, ATP assay. As to the method:
as §1

Peptide text beside a SMILES is read from it.

Consider `CC[C@H](C)[C@H](NC(=O)[C@H](CC(C)C)NC(=O)[C@H](CCCCN)NC(=O)[C@H](CC(C)C)NC(=O)[C@@H](N)CCSC)C(=O)N[C@@H](Cc1ccccc1)C(=O)N[C@@H](CC(C)C)C(=O)N[C@@H](Cc1c[nH]cn1)C(=O)N[C@@H](CCCNC(=N)N)C(=O)N[C@@H](CC(C)C)C(=O)N[C@@H](CCCCN)C(=O)N[C@@H](CCCNC(=N)N)C(=O)N[C@@H](CCSC)C(=O)N[C@@H](CCCNC(=N)N)C(=O)N[C@@H](CCCCN)C(=O)N[C@@H](CCCNC(=N)N)C(=O)N[C@@H](CC(C)C)C(=O)N[C@@H](CCCCN)C(=O)N[C@@H](CCCNC(=N)N)C(=O)N[C@@H](CCCCN)C(=O)O` [SR-1] (H-MLKLIFLHRLKRMRKRLKRK-OH; N-terminus assumed), for which the “ATP (%) mean, Enterobacteria (1)” value in assay [1] was 4.9%. For the same compound, in assay [2], the “antibacterial activity against Staphylococcus aureus compared with AG30-5C” value is “higher antibacterial activity against Staphylococcus aureus than AG30-5C” and the “ATP (%) mean, Staphylococcus aureus” value was 5.2%. Besides, in assay [3], the “ATP (%) mean, Pseudomonas aeruginosa” value is 26.0%.

For the compound `CC[C@H](C)[C@H](NC(=O)[C@H](CC(C)C)NC(=O)[C@@H](N)CCCCN)C(=O)N[C@@H](Cc1ccccc1)C(=O)N[C@@H](CC(C)C)C(=O)N[C@@H](Cc1c[nH]cn1)C(=O)N[C@@H](CCCNC(=N)N)C(=O)N[C@@H](CC(C)C)C(=O)N[C@@H](CCCCN)C(=O)N[C@@H](CCCNC(=N)N)C(=O)N[C@@H](CCSC)C(=O)N[C@@H](CCCNC(=N)N)C(=O)N[C@@H](CCCCN)C(=O)N[C@@H](CCCNC(=N)N)C(=O)N[C@@H](CC(C)C)C(=O)N[C@@H](CCCCN)C(=O)N[C@@H](CCCNC(=N)N)C(=O)N[C@@H](CCCCN)C(=O)N[C@@H](CC(C)C)C(=O)N[C@@H](CCCNC(=N)N)C(N)=O` [SR-4] (H-KLIFLHRLKRMRKRLKRKLR-NH2; N-terminus assumed), the “ATP (%) mean, Enterobacteria (1)” value in assay [1] stood at 4.9%. For the same compound, in assay [2], the “antibacterial activity against Staphylococcus aureus compared with AG30-5C” value is “higher antibacterial activity against Staphylococcus aureus than AG30-5C” and the “ATP (%) mean, Staphylococcus aureus” value worked out at 1.0%. In assay [3], the “ATP (%) mean, Pseudomonas aeruginosa” value is given as 9.8%.

Regarding `C[C@@H](O)[C@H]1C(=O)N2C(C(=O)O)=C(S[C@@H]3CN[C@H](C(=O)N(C)C)C3)[C@H](C)[C@H]12` [MEPM, meropenem, reference compound], in assay [1], the “ATP (%) mean, Enterobacteria (1)” value came out at 5.6%. The “ATP (%) mean, Pseudomonas aeruginosa” value in assay [3] was 20.2%.

For the compound `CSCC[C@H](NC(=O)[C@H](CCCNC(=N)N)NC(=O)[C@H](CCCCN)NC(=O)[C@H](CC(C)C)NC(=O)[C@H](CCCNC(=N)N)NC(=O)[C@H](Cc1c[nH]cn1)NC(=O)[C@H](CC(C)C)NC(=O)[C@H](Cc1ccccc1)NC(=O)[C@H](CCCNC(=N)N)NC(=O)[C@H](CC(C)C)NC(=O)[C@@H](N)CCC(=O)O)C(=O)N[C@@H](CCCNC(=N)N)C(=O)N[C@@H](CCCCN)C(=O)N[C@@H](CCCNC(=N)N)C(=O)N[C@@H](CC(C)C)C(=O)N[C@@H](CCCCN)C(=O)N[C@@H](CCCNC(=N)N)C(=O)N[C@@H](CCCCN)C(=O)N[C@@H](CC(C)C)C(=O)N[C@@H](CCCNC(=N)N)C(N)=O` [SR-3] (H-ELRFLHRLKRMRKRLKRKLR-NH2; N-terminus assumed), the “ATP (%) mean, Enterobacteria (1)” value in assay [1] was determined as 4.3%. Moreover, in assay [2], the “antibacterial activity against Staphylococcus aureus compared with AG30-5C” value is “higher antibacterial activity against Staphylococcus aureus than AG30-5C” and the “ATP (%) mean, Staphylococcus aureus” value turned out to be 3.5%. Further, in assay [3], the “antibacterial activity against Pseudomonas aeruginosa compared with AG30-5C” value is “higher antibacterial activity against Pseudomonas aeruginosa than AG30-5C” and the “ATP (%) mean, Pseudomonas aeruginosa” value was 3.3%.

Take `CC(C)C[C@H](NC(=O)[C@H](CCCCN)NC(=O)[C@H](CCCNC(=N)N)NC(=O)[C@H](CCCCN)NC(=O)[C@H](CC(C)C)NC(=O)[C@H](CCCNC(=N)N)NC(=O)[C@H](CCCCN)NC(=O)[C@H](CCCNC(=N)N)NC(=O)[C@H](CC(C)C)NC(=O)[C@H](CCCNC(=N)N)NC(=O)[C@H](CCCNC(=N)N)NC(=O)[C@H](CCCCN)NC(=O)[C@H](CC(C)C)NC(=O)[C@H](CCCNC(=N)N)NC(=O)[C@H](Cc1c[nH]cn1)NC(=O)[C@H](CC(C)C)NC(=O)[C@H](Cc1ccccc1)NC(=O)[C@H](CCCNC(=N)N)NC(=O)[C@H](CC(C)C)NC(=O)[C@@H](N)CCC(=O)O)C(=O)N[C@@H](CCCNC(=N)N)C(N)=O` [SR-2] (H-ELRFLHRLKRRLRKRLKRKLR-NH2; N-terminus assumed): the “ATP (%) mean, Enterobacteria (1)” value in assay [1] was determined as 3.0%. Further, in assay [2], the “antibacterial activity against Staphylococcus aureus compared with AG30-5C” value is “higher antibacterial activity against Staphylococcus aureus than AG30-5C” and the “ATP (%) mean, Staphylococcus aureus” value is listed as 4.4%. In assay [3], the “antibacterial activity against Pseudomonas aeruginosa compared with AG30-5C” value is “higher antibacterial activity against Pseudomonas aeruginosa than AG30-5C” and the “ATP (%) mean, Pseudomonas aeruginosa” value was found to be 1.0%.

For the compound `CSCC[C@H](NC(=O)[C@H](CCCNC(=N)N)NC(=O)[C@@H](N)CCCCN)C(=O)N[C@@H](CCCNC(=N)N)C(=O)N[C@@H](CCCCN)C(=O)N[C@@H](CCCNC(=N)N)C(=O)N[C@@H](CC(C)C)C(=O)N[C@@H](CCCCN)C(=O)N[C@@H](CCCNC(=N)N)C(=O)N[C@@H](CCCCN)C(=O)N[C@@H](CC(C)C)C(=O)N[C@@H](CCCNC(=N)N)C(=O)N[C@@H](CC(C)C)C(=O)N[C@@H](Cc1c[nH]c2ccccc12)C(=O)N[C@@H](Cc1c[nH]cn1)C(=O)N[C@@H](CCCNC(=N)N)C(=O)N[C@@H](CCCCN)C(=O)N[C@@H](CCCNC(=N)N)C(=O)N[C@@H](Cc1ccc(O)cc1)C(=O)N[C@@H](CCCCN)C(=O)O` [SR-5] (H-KRMRKRLKRKLRLWHRKRYK-OH; N-terminus assumed), the “ATP (%) mean, Enterobacteria (1)” value in assay [1] is given as 3.4%. For the same compound, the “ATP (%) mean, Staphylococcus aureus” value in assay [2] was found to be 24.2%. Also, the “ATP (%) mean, Pseudomonas aeruginosa” value in assay [3] is 16.4%.

`Cc1onc(-c2ccccc2)c1C(=O)N[C@@H]1C(=O)N2[C@@H]1SC(C)(C)[C@@H]2C(=O)O` [OX, oxacillin, reference compound]: the “ATP (%) mean, Enterobacteria (1)” value in assay [1] came out at 97.7%. Also, in assay [2], the “ATP (%) mean, Staphylococcus aureus” value was found to be 72.8%. Moreover, the “ATP (%) mean, Pseudomonas aeruginosa” value in assay [3] is 83.1%.

The values above are taken from patent publication US9376470B2, “Polypeptide having angiogenesis-inducing activity and antibacterial activity, and use thereof for medical purposes” (FunPep Inc., priority 2008, dated 2016).
